Holding throughout (format): in vivo, rat
The test system of one data set is rats. Kind of data set: Acute toxicity tests on rats. The note with it: dose of 1000 mg/kg body weight. The procedure: Acute toxicity tests were performed on rats.
Data set [1] concerns SD rats. Kind of data set: Hot plate experiment in rats with sciatic nerve ligation. The note with it: for paw lifting time threshold due to heating pain at surgical side after administration: P5 0.2 μg/kg caudal vein, ibuprofen 50 mg/kg intragastric. As to the method: Eighteen male SD rats of 240-260 g (purchased from Huafukangcheng Co., Ltd.) were selected as experimental rats, and divided into three groups with six rats in each group for a hot plate experiment, including a group administered with Polypeptide P5 at a dose of 0.2 μg/kg, a group administered with normal saline and a group administered with positive control drug (ibuprofen, 50 mg/kg). Screening was conducted before the experiment.
(§1) 4.0 chromic catguts (purchased from Shandong Boda Medical Products Co., Ltd.) were immersed into normal saline (purchased from Shijiazhuang Four Medicine Co., Ltd., National Pharmaceutical Standard H13023200) for 30 minutes for softening. Rats were shaved in the middle of their thighs, and wiped with iodine. Wound at 1 cm below the epidermis was created with a scissor, and then a J31060 hemostat was used to tear the biceps femoris. The sciatic nerve was thus exposed at the middle of the thighs. The end proximal to the leg was the trigeminal sciatic nerve. The sciatic nerve at the middle of the thighs was gently ligated four times with the 4.0 chromic catguts. The force was deemed appropriate if muscles near the ligation site slightly trembled. The adjacent ligation sites were 1 mm apart. Then muscles and epidermal tissues were sutured separately.
(§2) Before the experiment, the rats with successful surgery in the test group were injected via caudal vein with Peptide P5 in normal saline (dose at 0.2 μg/kg). Rats in normal saline group were intraperitoneally injected with 0.3 mL of normal saline. The positive drug group was administered via intragastric infusion with ibuprofen suspension (purchased from Shanghai Qiangsheng Pharmaceutical Co., Ltd., National Pharmaceutical Standard H19991011) at a dose of 50 mg/kg.
Hot plate experiments were performed on rats 7 days after surgery. Rats were feed properly, and the indoor environment was maintained at about 25° C. The temperature of the YLS-6B intelligent hot plate instrument (purchased from Beijing Zhongshi Di Chuang Technology Development Co., Ltd.) was set at about 55° C. The rats were placed on the hot plate instrument in a closed, detachable, and transparent plexiglass jar, and the time of occurrence of the hind paw licking or jump reaction was recorded. If there no reaction was observed from the rats with administration 20 seconds after placement in the jar, the SD rats were taken out to avoid scalding the paws due to too long heating. The pain threshold of such rats was calculated as 20 seconds. Each rat was tested twice in succession with the interval of at least 30 seconds. The average of results was calculated.
At the end of the experiment, the heating pain response time (i.e., pain threshold in second) of rats in the normal saline control group and individual drug-administered groups before administration and 10 min, 70 min, and 130 min after administration was recorded.
EXCEL's T-test function (two-tailed variance) was used to analyze the statistical difference between the paw lifting time thresholds due to heating pain of pre-modeling and post-modeling experimental rats to evaluate whether or not the modeling was successful. The difference among the heating pain time thresholds before administration and at each time point after administration was then analyzed to evaluate the pharmaceutical efficacy.

The subject of data set [2] is SD rats. The experiment in a line: Needling experiment (vonFrey probe) in rats with sciatic nerve ligation. The note with it: for paw lifting threshold due to needling at surgical side after administration: P5 0.2 μg/kg caudal vein, ibuprofen 50 mg/kg intragastric. The procedure: Eighteen male SD rats of 240-260 g (purchased from Huafukangcheng Co., Ltd.) were selected as experimental rats, and divided into three groups with six rats in each group for a needling experiment, including a group administered with the polypeptide at a dose of 0.2 μg/kg, a normal saline group and a positive control drug group (ibuprofen, 50 mg/kg).
as §1, §2
Fourteen days after surgery, the rats in the administration groups were tested before administration and 10 min\70 min\130 min after administration. The experimental rats were placed in a plexiglass observation chamber to acclimate the environment for 5 minutes until the rats no longer looked around. The ZS-CTY foot needling system (purchased from Beijing Zhongshi Di Chuang Technology Development Co., Ltd.) was connected to a win7 32-bit computer. The test software was opened to calibrate the zero point of the instrument, and then calibrate again after a 10 g weight was added. The vonFrey probe was used to slowly and gently stimulate the middle parts of the testing hind paws of the rats to observe the paw withdrawal reaction of the rats. […] The paw withdrawal reaction of rats due to physical activity was excluded. The reaction was recorded twice at each time point, and averaged to obtain paw lifting force thresholds (in g) due to needling. The foot needling system (purchased from Beijing Zhongshi Di Chuang Technology Development Co., Ltd.; lot. number: 20160101060001) was adjusted to zero with a 10 g weight, there was still a fundamental read fluctuation when the bottom of the rats' paws was needled. The fluctuation was generally between +3 and +5 g, which should be subtracted from the final value. If there was still a baseline, it should be removed.
EXCEL's T-test function (two-tailed variance) was used to analyze the statistical difference in paw lifting force thresholds due to needling between the untreated side and surgical side in the experimental rats to evaluate whether or not the modeling was successful. The difference among the needling pain force thresholds before administration and at each time point after administration was then analyzed to evaluate the pharmaceutical efficacy and effect duration.

Where [3] appears, read: P5 0.2 μg/kg, ibuprofen 50 mg/kg.

The values below come from US20200385423A1, “USE OF EXCITATORY NERVE INJURY-RELATED POLYPEPTIDE IN PREVENTING, ALLEVIATING OR TREATING PAIN” (Biocells (Beijing) Biotech Co., Ltd., priority 2016, published 2020).

`CC[C@H](C)[C@H](NC(=O)[C@H](CCC(=O)O)NC(=O)[C@@H](NC(=O)[C@H](CC(=O)O)NC(=O)[C@H](CC(C)C)NC(=O)[C@H](CC(C)C)NC(=O)[C@H](CCCCN)NC(=O)[C@H](CCC(=O)O)NC(=O)[C@H](Cc1ccc(O)cc1)NC(=O)[C@H](CCCNC(=N)N)NC(=O)[C@H](CCCNC(=N)N)NC(=O)[C@H](CCCNC(=N)N)NC(=O)[C@H](CCC(N)=O)NC(=O)[C@H](CCCNC(=N)N)NC(=O)[C@H](CCCNC(=N)N)NC(=O)[C@H](CCCCN)NC(=O)[C@H](CCCCN)NC(=O)[C@H](CCCNC(=N)N)NC(=O)CNC(=O)[C@@H](N)Cc1ccc(O)cc1)[C@@H](C)O)C(=O)O` [Polypeptide P5]: in the data set on rats, the acute toxicity result is “no lethal effect and other obvious toxic side effects”.
Regarding `CC(C)Cc1ccc(C(C)C(=O)O)cc1` (stereo not shown) [ibuprofen], the figures for the “paw lifting time threshold due to heating pain at surgical side after administration” value in the data set on SD rats [1] (10 min after administration), in the data set on SD rats [1] (70 min after administration) and with SD rats [1] (130 min after administration) were 5.74 s, 4.64 s and 4.19 s, respectively. The “duration of therapeutic (analgesic) effect, hot plate experiment” value in the data set with SD rats [1] (setting [3]) is below 130 min. For the same compound, the “paw lifting time threshold due to heating pain, surgical side before administration” value in the data set on SD rats [1] (baseline 7 days after surgery, before administration, hot plate about 55° C.) was determined as 3.95 s. Moreover, the “paw lifting time threshold due to heating pain, pre-modeling (control)” value in the data set on SD rats [1] (baseline of the group before modeling, hot plate about 55° C.) is on record as 12.5 s. Besides, the entries for the “paw lifting threshold due to needling at surgical side after administration” value with SD rats [2] (10 min after administration), in the data set on SD rats [2] (70 min after administration) and with SD rats [2] (130 min after administration) were 46.24 g, 36.21 g and 38.88 g, respectively. The “duration of therapeutic (analgesic) effect, needling experiment” value in the data set with SD rats [2] (setting [3]) is below 130 min. Also, in the data set with SD rats [2] (baseline 14 days after surgery, before administration), the “paw lifting threshold due to needling at surgical side before administration” value came to 28.72 g. The “paw lifting threshold due to needling, healthy side (control)” value with SD rats [2] (healthy side of the group, control value) is on record as 73.65 g.
